{"source": "paper PMC10497752", "about": "“Heparins are potent inhibitors of ectonucleotide pyrophosphatase/phospho-diesterase-1 (NPP1) – a promising target for the immunotherapy of cancer” (Frontiers in Immunology, 2023)", "key": {"human NPP1": {"tested_on": "human NPP1", "experiment": "NPP1 assay, capillary electrophoresis (CE)-based, ATP as substrate", "format": "biochemical", "protocol": "Concentration-inhibition curves of the test compounds at human NPP1 were performed with ATP as substrate at a final concentration of 400 μM. Several different dilutions of the test compounds were prepared in assay buffer (10 mM N-cyclohexyl-2-aminoethanesulfonic acid (CHES), 2 mM CaCl2, 1 mM MgCl2, pH 9.00) and incubated with 20 ng of human recombinant soluble NPP1 (Val191 - Leu591) expressed in murine myeloma NS0 cells obtained from R&D Systems GmbH (Wiesbaden, Germany, purity 95%, purified by using an N-terminal His-tag). For initial screening and selectivity analysis, NPP1 prepared as previously described ([20]), diluted in assay buffer, was used. The mixture of enzyme, substrate and test compound or buffer without test compound was incubated for 30 min at 37°C, and the reaction was terminated by heating at 90°C for 5 min. Capillary electrophoresis (CE) analysis was carried out to analyze the formation of the product. Data collection and peak area analysis were performed by the P/ACE MDQ software 32 KARAT obtained from Beckman Coulter (Fullerton, CA, USA). A polyacrylamide-coated capillary was used [30 cm (20 cm effective length) × 50 μm (id) × 360 μm (od) purchased from Chromatographie Service GmbH (Langerwehe, Germany)]. Samples were injected electro-kinetically by applying a voltage of -6 kV for 30 s. Finally, analytes were separated by applying a separation voltage of -20 kV, and detected by UV at 260 nm. The IC50 values were determined by nonlinear curve fitting using the GraphPad Prism Software 7.0. The mechanism of inhibition at human NPP1 was determined employing different concentrations of the investigated compounds 6 (at 0, 0.4, 4.0 µM), and 7 (at 0, 0.4 and 40 µM) versus four different substrate concentrations ranging from 50 to 500 μM of ATP. The assay procedure and operation conditions were the same as described above. The experiment was conducted twice, each in triplicates. A Lineweaver-Burk was calculated using GraphPad Prism 7.0 for predicting the inhibition type of the compound."}, "human NPP5": {"target": "T1, human NPP5 (Homo sapiens, UniProt Q9UJA9)", "T1 sequence (Q9UJA9 25-477)": "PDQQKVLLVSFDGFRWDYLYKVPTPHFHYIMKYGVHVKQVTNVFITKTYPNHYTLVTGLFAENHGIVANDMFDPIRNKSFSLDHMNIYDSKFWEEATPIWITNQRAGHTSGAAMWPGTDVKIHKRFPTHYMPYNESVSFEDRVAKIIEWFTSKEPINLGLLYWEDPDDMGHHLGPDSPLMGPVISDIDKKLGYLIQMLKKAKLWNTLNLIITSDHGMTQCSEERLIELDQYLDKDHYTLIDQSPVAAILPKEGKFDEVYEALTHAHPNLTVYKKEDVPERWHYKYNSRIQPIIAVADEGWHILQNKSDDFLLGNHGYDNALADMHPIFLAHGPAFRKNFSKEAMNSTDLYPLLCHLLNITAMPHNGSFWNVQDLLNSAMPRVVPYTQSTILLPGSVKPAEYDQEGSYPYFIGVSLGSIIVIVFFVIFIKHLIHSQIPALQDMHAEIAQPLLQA", "experiment": "NPP5 colorimetric assay, p-Nph-5'-TMP as substrate", "format": "biochemical", "conditions": "20 µg/mL (12 µM)", "protocol": "Compounds 1, 2, 5, 6, and 7 were screened at different concentrations using 400 μM of p-nitrophenyl thymidine monophosphate (p-Nph-5´-TMP) as substrate to study potential inhibition of NPP3 and NPP5 using a colorimetric assay as previously described ([21]). Soluble and purified human NPP3, prepared as previously described ([22]), and human NPP5 ([23]) were diluted in the assay buffer (50 mM TRIS HCl, 2 mM CaCl2, and 0.2 mM ZnCl2, pH 9.00), and 0.09 µg of NPP3, or 0.4 µg of NPP5 were employed. The mixtures were incubated for 30 min at 37°C in case of NPP3, and for 100 min at 37°C in case of NPP5, and the reactions were subsequently terminated by adding 20 μL of 1.0 N aq. NaOH solution. The assay is based on the enzymatic ester hydrolysis of p-Nph-5’-TMP which results in the formation of the yellow p-nitrophenolate anion. The absorption was measured at 400 nm using a BMG PheraStar FS plate reader (BMG Labtech GmbH, Ortenberg, Germany). Each analysis was repeated three times with triplicate measurements."}, "human CD4+ T cells": {"tested_on": "human CD4+ T cells", "experiment": "Induced Treg differentiation assay", "format": "cell-based", "conditions": "U87 cells preincubated with 20 µM ATP plus heparin; supernatant added to CD4+ T cells, day 5 flow cytometry", "protocol": "Human CD4^+ T cells were extracted from buffy coats by positive selection using the StraightFrom™ Buffy Coat CD4 MicroBead Kit (Miltenyi Biotec, Bergisch Gladbach, Germany). CD4^+ T cells were stimulated by ImmunoCult™ Human CD3/CD28/CD2 T Cell Activator at day 1. At days 1 and 3, the indicated compounds or U87 cell supernatant, either of untreated or of heparin-treated cells were added to CD4^+ T cells. Cells were harvested at day 5 and were investigated for CD25 and FoxP3 expression. Therefore, cells were washed once with staining buffer (1% BSA, 0.01% NaN3 in PBS). To avoid nonspecific binding, cells were blocked for 15 min with 3% BSA in PBS. Anti-CD25 antibody (PerCP/Cyanine5.5 anti-human CD25 antibody, RRID : AB_2125478, BioLegend Inc, San Diego, CA, USA) was added and the cells were incubated for 30 min in the dark. Subsequently, cells were washed once with staining buffer and fixed in 150 µL of fixation buffer (3% paraformaldehyde (PFA), 0.1% saponin, and 0.5% Tween-20 in Dulbecco's phosphate-buffered saline) for 30 min at 4°C. […] Samples were measured in triplicates using the Guava® easyCyte HT Flow Cytometer (Merck Millipore, Billerica, MA, USA). Compensation and FMO (fluorescence minus one) controls were conducted. […] Data were evaluated using the FlowJo™ v10.5.3 Software (RRID : SCR_008520, BD Life Sciences, Franklin Lakes, NJ, USA) and Graphpad PRISM 8.4.0."}}, "data": [{"smiles": "CO[C@H]1O[C@H](COS(=O)(=O)O)[C@@H](O[C@@H]2O[C@@H](C(=O)O)[C@@H](O[C@H]3O[C@H](COS(=O)(=O)O)[C@@H](O[C@@H]4O[C@H](C(=O)O)[C@@H](O[C@H]5O[C@H](COS(=O)(=O)O)[C@@H](O)[C@H](O)[C@H]5NS(=O)(=O)O)[C@H](O)[C@H]4O)[C@H](OS(=O)(=O)O)[C@H]3NS(=O)(=O)O)[C@H](O)[C@H]2OS(=O)(=O)O)[C@H](O)[C@H]1NS(=O)(=O)O", "note": "[Compound 6, Fondaparinux]", "values": [{"measurement": "NPP1 inhibition, selectivity study", "setting": "human NPP1; 20 µg/mL (12 µM)", "result": "full inhibition"}, {"measurement": "inhibition of human NPP1, initial screening", "setting": "human NPP1; 50 µg/mL (30 µM)", "result": "almost complete inhibition"}, {"measurement": "NPP5 inhibition, selectivity study", "setting": "human NPP5", "result": "no effect"}, {"measurement": "Treg formation (CD25/FoxP3 positive cells) induced by supernatant of ATP-treated U87 cells", "setting": "human CD4+ T cells", "result": "reduced Treg formation even below that of the control cells"}]}]}
